Measurements published in patent US10501518B2 (priority 2013, dated 2019).
Starred links: 1 amine or outer side, 2 acyl side, 3 side chain; linkers in the order of their positions; H or OH if unused. Non-standard residues stand in square brackets, D forms with d. Residues, ends and D or L forms follow the SMILES beside them. X13 = O=C([C@H]1CNC[C@@H]1N[*:1])[*:2]; β3hA = C[C@H](N)CC(=O)O

How the values were obtained:
Type in all cases: cell-based
[1] = target: T1, delNT PTHR1 (Homo sapiens, UniProt Q03431, DEL24-181); assay: cAMP-inducing potency at truncated receptor delNT PTHR1; details: for Fold PTH, nM (deINT PTHR1): EC50 relative to PTH(1-34)
T1 construct: expressed in transfected cells
T1 sequence (Q03431 with tags, fused parts or gaps DEL24-181): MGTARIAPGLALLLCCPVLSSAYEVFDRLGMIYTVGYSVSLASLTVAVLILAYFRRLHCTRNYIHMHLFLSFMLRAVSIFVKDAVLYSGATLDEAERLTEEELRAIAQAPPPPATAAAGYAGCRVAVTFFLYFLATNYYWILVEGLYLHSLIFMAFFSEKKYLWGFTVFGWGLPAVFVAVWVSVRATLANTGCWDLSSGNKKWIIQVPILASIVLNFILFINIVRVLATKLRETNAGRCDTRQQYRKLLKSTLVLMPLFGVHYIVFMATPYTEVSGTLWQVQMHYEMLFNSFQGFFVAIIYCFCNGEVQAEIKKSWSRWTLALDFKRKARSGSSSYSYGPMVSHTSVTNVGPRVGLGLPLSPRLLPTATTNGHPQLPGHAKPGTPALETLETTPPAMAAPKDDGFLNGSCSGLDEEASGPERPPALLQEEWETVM

[2] = target: T2, WT human PTHR-1 (Homo sapiens, UniProt Q03431); assay: cAMP GloSensor dose-response in GP-2.3 cells expressing human PTHR-1; details: Table 8; for Fold PTH, nM (hPTHR1): EC50 relative to PTH(1-34)
T2 construct: bioactivity of the resulting compound in full-length hPTHR-1 and a truncated version; expressed in transfected cells
T2 sequence (Q03431 27-593): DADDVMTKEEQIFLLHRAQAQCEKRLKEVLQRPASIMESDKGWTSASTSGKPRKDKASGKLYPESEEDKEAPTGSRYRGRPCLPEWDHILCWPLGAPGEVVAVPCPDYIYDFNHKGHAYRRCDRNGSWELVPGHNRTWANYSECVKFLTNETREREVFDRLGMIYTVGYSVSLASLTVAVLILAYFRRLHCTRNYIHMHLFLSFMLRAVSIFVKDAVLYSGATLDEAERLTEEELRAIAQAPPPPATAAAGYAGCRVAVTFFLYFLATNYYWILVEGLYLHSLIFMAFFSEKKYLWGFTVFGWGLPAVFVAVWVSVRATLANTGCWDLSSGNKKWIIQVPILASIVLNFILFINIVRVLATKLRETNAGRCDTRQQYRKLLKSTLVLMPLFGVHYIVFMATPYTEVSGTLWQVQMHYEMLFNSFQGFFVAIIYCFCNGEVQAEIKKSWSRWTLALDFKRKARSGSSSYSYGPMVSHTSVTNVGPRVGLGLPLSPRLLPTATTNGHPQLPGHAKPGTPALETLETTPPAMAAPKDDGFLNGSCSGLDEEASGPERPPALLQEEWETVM
Experimental: FIGS. 8A, 8B, and 8C constitute a series of graphs depicting cAMP responses in GP-2.3 cells expressing wild-type human parathyroid hormone receptor 1 (PTHR-1-WT). […] Data are means (±SEM) of n>4 experiments, each performed in duplicate.
For cAMP dose-response assays, monolayers of confluent HEK 293 cells were pre-incubated with buffer containing d-luciferin (0.5 mM) in 96 well plates at room temperature until a stable baseline level of luminescence was established (30 min). Varying concentrations of agonist were then added, and the time course of luminescence response was recorded using a Perkin Elmer plate reader following α/β-peptide addition.

[3] = system: PTH2R/PTH1R; assay: cAMP response selectivity between PTH2R and PTH1R; details: Table 16; most selective
Source text: Selected analogs containing beta-amino acid substitutions selectively signal through one or the other of the two receptors. Without being bound to any underling biological phenomenon or mechanism, PTHR-2 likely serves an alternative function to PTHR-1 as it is highly expressed in the central nervous system. In contrast, PTHR-1 is highly expressed in bone and kidney, but not in the CNS. The analogs disclosed herein are thus useful as therapeutic compounds that a specific agonists or antagonists of PTHR-1 and PTHR-2.

SMILES | cAMP-inducing potency in delNT PTHR-1, in words [1] | Fold PTH, nM (hPTHR1) [2] | Fold PTH, nM (deINT PTHR1) ([1]; Table 8) | other results
CC[C@H](C)[C@@H](CC(=O)N[C@@H](CCC(N)=O)C(=O)N[C@@H](CC(C)C)C(=O)N[C@@H](CCSC)C(=O)N[C@@H](Cc1c[nH]cn1)C(=O)N[C@@H](CC(N)=O)C(=O)N[C@@H](CC(C)C)C(=O)NCC(=O)N[C@@H](CCCCN)C(=O)N[C@@H](Cc1c[nH]cn1)C(=O)N[C@@H](CC(C)C)C(=O)N[C@@H](CC(N)=O)C(=O)N[C@@H](CO)C(=O)N[C@@H](CCSC)C(=O)N[C@@H](CCC(=O)O)C(=O)N[C@@H](CCCNC(=N)N)C(=O)N[C@H](C(=O)N[C@@H](CCC(=O)O)C(=O)N[C@@H](Cc1c[nH]c2ccccc12)C(=O)N[C@@H](CC(C)C)C(=O)N[C@@H](CCCNC(=N)N)C(=O)N[C@@H](CCCCN)C(=O)N[C@@H](CCCCN)C(=O)N[C@@H](CC(C)C)C(=O)N[C@@H](CCC(N)=O)C(=O)N[C@@H](CC(=O)O)C(=O)N[C@H](C(=O)N[C@@H](Cc1c[nH]cn1)C(=O)N[C@@H](CC(N)=O)C(=O)N[C@@H](Cc1ccccc1)C(N)=O)C(C)C)C(C)C)NC(=O)[C@H](CCC(=O)O)NC(=O)[C@H](CO)NC(=O)[C@@H](NC(=O)[C@@H](N)CO)C(C)C [β^3Ile(5)] | weak or no potency | – | – | deINT PTHR1 EC50, nM (Means ± SEM) ([1]; Table 8, truncated receptor lacking Ala^24-Arg^181): No activity
CC[C@H](C)[C@H](NC(=O)[C@H](CCC(=O)O)NC(=O)[C@H](CO)NC(=O)[C@@H](NC(=O)[C@@H](N)CO)C(C)C)C(=O)N[C@@H](CCC(N)=O)CC(=O)N[C@@H](CC(C)C)C(=O)N[C@@H](CCSC)C(=O)N[C@@H](Cc1c[nH]cn1)C(=O)N[C@@H](CC(N)=O)C(=O)N[C@@H](CC(C)C)C(=O)NCC(=O)N[C@@H](CCCCN)C(=O)N[C@@H](Cc1c[nH]cn1)C(=O)N[C@@H](CC(C)C)C(=O)N[C@@H](CC(N)=O)C(=O)N[C@@H](CO)C(=O)N[C@@H](CCSC)C(=O)N[C@@H](CCC(=O)O)C(=O)N[C@@H](CCCNC(=N)N)C(=O)N[C@H](C(=O)N[C@@H](CCC(=O)O)C(=O)N[C@@H](Cc1c[nH]c2ccccc12)C(=O)N[C@@H](CC(C)C)C(=O)N[C@@H](CCCNC(=N)N)C(=O)N[C@@H](CCCCN)C(=O)N[C@@H](CCCCN)C(=O)N[C@@H](CC(C)C)C(=O)N[C@@H](CCC(N)=O)C(=O)N[C@@H](CC(=O)O)C(=O)N[C@H](C(=O)N[C@@H](Cc1c[nH]cn1)C(=O)N[C@@H](CC(N)=O)C(=O)N[C@@H](Cc1ccccc1)C(N)=O)C(C)C)C(C)C [β^3Gln(6)] | – | 159.7 | 110 | cAMP response PTH2R/PTH1R [3]: 133
CC[C@H](C)[C@H](NC(=O)[C@H](CCC(=O)O)NC(=O)[C@H](CO)NC(=O)[C@@H](NC(=O)C[C@H](C)N)C(C)C)C(=O)N[C@@H](CCC(N)=O)C(=O)N[C@@H](CC(C)C)C(=O)N[C@@H](CCSC)C(=O)N[C@@H](Cc1c[nH]cn1)C(=O)N[C@@H](CC(N)=O)C(=O)N[C@@H](CC(C)C)C(=O)NCC(=O)N[C@@H](CCCCN)C(=O)N[C@@H](Cc1c[nH]cn1)C(=O)N[C@@H](CC(C)C)C(=O)N[C@@H](CC(N)=O)C(=O)N[C@@H](CO)C(=O)N[C@@H](CCSC)C(=O)N[C@@H](CCC(=O)O)C(=O)N[C@@H](CCCNC(=N)N)C(=O)N[C@H](C(=O)N[C@@H](CCC(=O)O)C(=O)N[C@@H](Cc1c[nH]c2ccccc12)C(=O)N[C@@H](CC(C)C)C(=O)N[C@@H](CCCNC(=N)N)C(=O)N[C@@H](CCCCN)C(=O)N[C@@H](CCCCN)C(=O)N[C@@H](CC(C)C)C(=O)N[C@@H](CCC(N)=O)C(=O)N[C@@H](CC(=O)O)C(=O)N[C@H](C(=O)N[C@@H](Cc1c[nH]cn1)C(=O)N[C@@H](CC(N)=O)C(=O)N[C@@H](Cc1ccccc1)C(N)=O)C(C)C)C(C)C [β^3Ala(1)] (H-[β3hA]VSEIQLMHNLGKHLNSMERVEWLRKKLQDVHNF-NH2) | – | 2.2 | 0.4 | EC50 ([2]; cAMP-inducing potency, N-terminal modifications, read-out: hPTHR1 EC50, nM (Means ± SEM)): 0.2 ± 0.09 nM
CC[C@H](C)[C@H](NC(=O)[C@H](CCC(=O)O)NC(=O)[C@H](CO)NC(=O)[C@@H](NC(=O)[C@@H](N)CO)C(C)C)C(=O)N[C@@H](CCC(N)=O)C(=O)N[C@H](CC(=O)N[C@@H](CCSC)C(=O)N[C@@H](Cc1c[nH]cn1)C(=O)N[C@@H](CC(N)=O)C(=O)N[C@@H](CC(C)C)C(=O)NCC(=O)N[C@@H](CCCCN)C(=O)N[C@@H](Cc1c[nH]cn1)C(=O)N[C@@H](CC(C)C)C(=O)N[C@@H](CC(N)=O)C(=O)N[C@@H](CO)C(=O)N[C@@H](CCSC)C(=O)N[C@@H](CCC(=O)O)C(=O)N[C@@H](CCCNC(=N)N)C(=O)N[C@H](C(=O)N[C@@H](CCC(=O)O)C(=O)N[C@@H](Cc1c[nH]c2ccccc12)C(=O)N[C@@H](CC(C)C)C(=O)N[C@@H](CCCNC(=N)N)C(=O)N[C@@H](CCCCN)C(=O)N[C@@H](CCCCN)C(=O)N[C@@H](CC(C)C)C(=O)N[C@@H](CCC(N)=O)C(=O)N[C@@H](CC(=O)O)C(=O)N[C@H](C(=O)N[C@@H](Cc1c[nH]cn1)C(=O)N[C@@H](CC(N)=O)C(=O)N[C@@H](Cc1ccccc1)C(N)=O)C(C)C)C(C)C)CC(C)C [β^3Leu(7)] | weak or no potency | – | – | –
CC[C@H](C)[C@H](NC(=O)[C@H](CCC(=O)O)NC(=O)[C@H](CO)NC(=O)[C@@H](NC(=O)[C@@H](N)CO)C(C)C)C(=O)N[C@@H](CCC(N)=O)C(=O)N[C@@H](CC(C)C)C(=O)N[C@@H](CCSC)C(=O)N[C@H]1CNC[C@@H]1C(=O)N[C@@H](CC(N)=O)C(=O)N[C@@H](CC(C)C)C(=O)NCC(=O)N[C@@H](CCCCN)C(=O)N[C@@H](Cc1c[nH]cn1)C(=O)N[C@@H](CC(C)C)C(=O)N[C@@H](CC(N)=O)C(=O)N[C@@H](CO)C(=O)N[C@@H](CCSC)C(=O)N[C@@H](CCC(=O)O)C(=O)N[C@@H](CCCNC(=N)N)C(=O)N[C@H](C(=O)N[C@@H](CCC(=O)O)C(=O)N[C@@H](Cc1c[nH]c2ccccc12)C(=O)N[C@@H](CC(C)C)C(=O)N[C@@H](CCCNC(=N)N)C(=O)N[C@@H](CCCCN)C(=O)N[C@@H](CCCCN)C(=O)N[C@@H](CC(C)C)C(=O)N[C@@H](CCC(N)=O)C(=O)N[C@@H](CC(=O)O)C(=O)N[C@H](C(=O)N[C@@H](Cc1c[nH]cn1)C(=O)N[C@@H](CC(N)=O)C(=O)N[C@@H](Cc1ccccc1)C(N)=O)C(C)C)C(C)C [APC(9)] (H-SVSEIQLM[X13]NLGKHLNSMERVEWLRKKLQDVHNF-NH2; N-terminus assumed) | – | – | 87 | hPTHR1 EC50, nM (Means ± SEM) ([2]; cAMP-inducing potency, N-terminal modifications): No activity
